Literature values in patent US7858656B2, “Controlled release formulations containing an active ingredient, preferably melatonin and the method of preparation” (Ambros Pharma S.R.L., priority 2000, dated 2010).

Conditions: in various species, including man

Q: Which half-life of melatonin does the source give for `COc1ccc2[nH]cc(CCNC(C)=O)c2c1` [melatonin, N-acetyl-5-methoxytryptamine] here?
A: 20 to 40 min
